In PubChem BioAssay AID588388 (NMMLSC, 2011):
Active and inactive are the calls of the source.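 The calls were made as follows: active = half-effect dose EC50 at most 10 µM and% response shifting 30% or more across doses, valid fit; inactive = the rest.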

Target: GTPase HRas (Homo sapiens) (UniProt P01112)
Assay: inhibition of Bodipy-GTP binding to H-Ras wt – biochemical, multiplex bead flow cytometry, round 1, SAR follow-up (AID 588388)
Details: GST-H-Ras beads, EDTA

Chain of GTPase HRas (Homo sapiens) (P01112 whole entry, looked up): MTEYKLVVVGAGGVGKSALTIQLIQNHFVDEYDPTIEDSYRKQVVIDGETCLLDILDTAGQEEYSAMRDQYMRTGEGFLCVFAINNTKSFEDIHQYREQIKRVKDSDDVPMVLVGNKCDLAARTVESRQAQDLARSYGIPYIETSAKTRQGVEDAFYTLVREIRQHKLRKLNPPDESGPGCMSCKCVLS

EC50, active:
CC1(C)Cc2c(sc(NC(=S)NC(=O)c3ccccc3)c2C(=O)O)CO1 78 nM
CC1(C)Cc2c(sc(NC(=O)NC(=O)c3ccccc3)c2C(=O)O)CO1 149 nM
O=C(NC(=S)Nc1sc2c(c1C(=O)O)CCOC2)c1ccccc1 33 nM
CC1Cc2c(sc(NC(=S)NC(=O)c3ccccc3)c2C(=O)O)CO1 (configuration not stated) 54 nM
COc1cccc(C(=O)NC(=S)Nc2sc3c(c2C(=O)O)CC(C)(C)OC3)c1 30 nM
CC1(C)Cc2c(sc(NC(=S)NC(=O)c3cccc(F)c3)c2C(=O)O)CO1 290 nM
CC1(C)Cc2c(sc(NC(=S)NC(=O)c3ccc(Br)cc3)c2C(=O)O)CO1 257 nM
CC1(C)CCc2sc(NC(=S)NC(=O)c3ccccc3)c(C(=O)O)c2C1 67 nM
CC1(C)Cc2c(sc(NC(=S)NC(=O)c3ccccc3Br)c2C(=O)O)CO1 46 nM
CC1(C)Cc2c(sc(NC(=S)NC(=O)c3ccccc3F)c2C(=O)O)CO1 50 nM
COc1ccc(C(=O)NC(=S)Nc2sc3c(c2C(=O)O)CC(C)(C)OC3)cc1 108 nM

Same assay, conditions: GST-H-Ras beads, EDTA, at 100 µM (top of the series)

% response (lower = inhibition), inactive:
COC(=O)c1c(N)sc2c1CC(C)(C)OC2
Cc1ccc(NC(=O)Nc2sc3c(c2C(=O)O)CCN(C)C3)cc1
CCOC(=O)c1c(NC(=S)Nc2ccccc2)sc2c1CC(C)(C)OC2
CCOC(=O)c1c(NC(=O)Nc2ccc(C)cc2)sc2c1CCN(C)C2
CN1CCc2c(sc3nc(Nc4ccc(F)cc4)oc(=O)c23)C1
Cc1ccc(Nc2nc3sc4c(c3c(=O)o2)CCN(C)C4)cc1
CCOC(=O)c1c(NC(=S)NC(=O)c2ccccc2)sc2ccccc12
CCOC(=O)c1c(NC(=O)Nc2ccc(F)cc2)sc2c1CCN(C)C2
CC(C)(C)OC(=O)c1c(NC(=S)NC(=O)c2ccccc2)sc2c1CCOC2
CCOC(=O)c1c(N)sc2ccccc12
CC1(C)Cc2c(sc(NC(=S)Nc3ccccc3)c2C(=O)O)CO1
COC(=O)c1c(NC(=S)NC(=O)c2ccccc2)sc2c1CC(C)(C)OC2
CCOC(=O)c1c(NC(=O)NC(C)(C)C)sc2c1CCN(C)C2
CC1(C)Cc2c(sc(NC(=O)Cc3ccccc3)c2C(=O)O)CO1
CC1(C)Cc2c(sc(NC(=S)NC(=O)c3cccc(Br)c3)c2C(=O)O)CO1
CN1CCc2c(sc(NC(=O)Nc3ccc(F)cc3)c2C(=O)O)C1
